Consider 22 compounds from patent US20210009542A1 (Calico Life Sciences LLC, priority 2018, published 2021).

One may read the IC50 as the concentration at which inhibition is half-maximal.

Experiment [1] addresses T1, His tagged PTPN2 (TC45) protein (Homo sapiens, UniProt P17706).
T1 construct: made in house
T1 sequence (P17706 with tags, fused parts or gaps isoform P17706-2): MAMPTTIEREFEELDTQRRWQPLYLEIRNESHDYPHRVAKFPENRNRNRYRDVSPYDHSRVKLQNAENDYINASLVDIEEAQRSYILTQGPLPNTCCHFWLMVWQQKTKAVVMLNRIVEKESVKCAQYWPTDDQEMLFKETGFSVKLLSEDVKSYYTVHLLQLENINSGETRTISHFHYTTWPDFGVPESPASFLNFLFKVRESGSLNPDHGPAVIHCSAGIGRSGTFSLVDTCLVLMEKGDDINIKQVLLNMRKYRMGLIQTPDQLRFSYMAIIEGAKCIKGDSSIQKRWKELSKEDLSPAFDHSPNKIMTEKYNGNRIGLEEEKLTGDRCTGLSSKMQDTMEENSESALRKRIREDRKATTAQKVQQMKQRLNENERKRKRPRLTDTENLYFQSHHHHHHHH
As to the kind of experiment: Mobility shift assay (MSA) for potency of PTPN2 inhibitors. The following applies: read-out: PTPN2 MSA IC50. Type of experiment: biochemical. An outline of the steps:
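His-tagged PTPN2 TC45 (0.5 nM) was preincubated with compound (12-point, 1:3) for 10 min at room temperature in 50 mM HEPES pH 7.5, 1 mM EGTA, 10 mM EDTA, 0.01% Tween 20, 2 mM DTT. OG488-labelled phospho-insulin-receptor peptide ([…]) was then added for 10 min. After quenching, dephosphorylation was measured by microfluidic mobility shift and IC50 derived from % inhibition.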

The test system of experiment [2] is B16F10 mouse melanoma cells. Put plainly: B16F10 IFNγ-induced cellular growth inhibition assay. Conditions: Mus musculus, B16-F10, 33 μM compound. Format: cell-based. In a few lines: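 B16F10 cells (500/well, DMEM + 10% FBS) dosed in triplicate at 100 μM to 0.001 μM (0.1% DMSO) with or without 0.5 ng/mL final mouse IFNγ. Confluence imaged every 6 h for 5 days; % growth inhibition calculated versus DMSO/with-IFNγ control once DMSO/no-IFNγ wells exceeded 95% confluence.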

The mark [3] stands for this setting: +0.5 ng/mL IFNγ, relative to DMSO control, read-out: % B16F10 growth inhibition (+0.5 ng/mL IFNγ) @ 33 μM.
Where [4] appears, read: no IFNγ, read-out: % B16F10 growth inhibition (no IFNγ) @ 33 μM.

Structures are written as SMILES. Read-outs that look alike come from different tables or passages of the source. Bounds are passed on as bounds.

In the case of `O=C1CN(c2c(O)cc3ccc(CC4CCN(CC(F)(F)F)CC4)cc3c2F)S(=O)(=O)N1` [Compound 252, 5-(1-fluoro-3-hydroxy-7-{[1-(2,2,2-trifluoroethyl)piperidin-4-yl]methyl}naphthalen-2-yl)-1λ^6,2,5-thiadiazolidine-1,1,3-trione], the IC50 in experiment [1] was 1 to 10 nM. The inhibition at 33 µM in experiment [2] (setting [3]) is 25 to 59%; in experiment [2] (setting [4]), below 25%.
For the compound `O=C1CN(c2c(O)cc3ccc(OCCN4CCC4)cc3c2F)S(=O)(=O)N1` [Compound 105, 5-{7-[2-(azetidin-1-yl)ethoxy]-1-fluoro-3-hydroxynaphthalen-2-yl}-1λ^6,2,5-thiadiazolidine-1,1,3-trione], in experiment [1], the IC50 was in the range of 1 to 10 nM. The inhibition at 33 µM in experiment [2] (setting [3]) is 60 to 90%; in experiment [2] (setting [4]), below 25%.
On the same counts, the results for `O=C1CN(c2c(O)cc3ccc(C4=CCN(C(=O)C5CC5)C4)cc3c2F)S(=O)(=O)N1` [Compound 237, 5-{7-[1-(cyclopropanecarbonyl)-2,5-dihydro-1H-pyrrol-3-yl]-1-fluoro-3-hydroxynaphthalen-2-yl}-1λ^6,2,5-thiadiazolidine-1,1,3-trione] are 1 to 10 nM, above 90% and below 25%.
On the same counts, the results for `N#CCCCCOc1ccc2cc(O)c(N3CC(=O)NS3(=O)=O)c(F)c2c1` [Compound 111, 5-{[8-fluoro-6-hydroxy-7-(1,1,4-trioxo-1λ^6,2,5-thiadiazolidin-2-yl)naphthalen-2-yl]oxy}pentanenitrile] are below 1 nM, 60 to 90% and below 25%.
On the same counts, the results for `CC(C)(CC#N)CCOc1ccc2cc(O)c(N3CC(=O)NS3(=O)=O)c(F)c2c1` [Compound 115, 5-{[8-fluoro-6-hydroxy-7-(1,1,4-trioxo-1λ^6,2,5-thiadiazolidin-2-yl)naphthalen-2-yl]oxy}-3,3-dimethylpentanenitrile] are below 1 nM, 60 to 90% and below 25%.
As for `CC(C)Oc1ccc2cc(O)c(N3CC(=O)NS3(=O)=O)c(F)c2c1` [Compound 279, 5-{1-fluoro-3-hydroxy-7-[(propan-2-yl)oxy]naphthalen-2-yl}-1λ^6,2,5-thiadiazolidine-1,1,3-trione], the IC50 in experiment [1] is 1 to 10 nM. Besides, the inhibition at 33 µM is 60 to 90% in experiment [2] (setting [3]) and below 25% in experiment [2] (setting [4]).
The corresponding values for `N#CC1(CCOc2ccc3cc(O)c(N4CC(=O)NS4(=O)=O)c(F)c3c2)CC1` [Compound 159, 1-(2-{[8-fluoro-6-hydroxy-7-(1,1,4-trioxo-1λ^6,2,5-thiadiazolidin-2-yl)naphthalen-2-yl]oxy}ethyl)cyclopropane-1-carbonitrile] are below 1 nM, above 90% and below 25%.
As to `CC(C)(CN)CCOc1ccc2cc(O)c(N3CC(=O)NS3(=O)=O)c(F)c2c1` [Compound 176, 5-[7-(4-amino-3,3-dimethylbutoxy)-1-fluoro-3-hydroxynaphthalen-2-yl]-1λ^6,2,5-thiadiazolidine-1,1,3-trione], the IC50 in experiment [1] lay within 1 to 10 nM. Further, the inhibition at 33 µM was above 90% in experiment [2] (setting [3]) and below 25% in experiment [2] (setting [4]).
With `O=C1CN(c2c(O)cc3ccc(OC4CN(S(=O)(=O)C5CC5)C4)cc3c2F)S(=O)(=O)N1` [Compound 178, 5-(7-{[1-(cyclopropanesulfonyl)azetidin-3-yl]oxy}-1-fluoro-3-hydroxynaphthalen-2-yl)-1λ^6,2,5-thiadiazolidine-1,1,3-trione], in experiment [1], the IC50 lay in the range of 1 to 10 nM. Further, the inhibition at 33 µM in experiment [2] (setting [3]) was 60 to 90%; in experiment [2] (setting [4]) it was below 25%.
On the same counts, the results for `CS(=O)(=O)N1CC(Nc2ccc3cc(O)c(N4CC(=O)NS4(=O)=O)c(F)c3c2)C1` [Compound 128, 5-(1-fluoro-3-hydroxy-7-{[1-(methanesulfonyl)azetidin-3-yl]amino}naphthalen-2-yl)-1λ^6,2,5-thiadiazolidine-1,1,3-trione] are 1 to 10 nM, above 90% and below 25%.
The corresponding values for `O=C1CN(c2c(O)cc3ccc(C4CCS(=O)(=O)CC4)cc3c2F)S(=O)(=O)N1` [Compound 248, 5-[7-(1,1-dioxo-1λ^6-thian-4-yl)-1-fluoro-3-hydroxynaphthalen-2-yl]-1λ^6,2,5-thiadiazolidine-1,1,3-trione] are 1 to 10 nM, 60 to 90% and below 25%.
The corresponding values for `O=C1CN(c2c(O)cc3ccc(NCCN4CCC4)cc3c2F)S(=O)(=O)N1` [Compound 177, 5-(7-{[2-(azetidin-1-yl)ethyl]amino}-1-fluoro-3-hydroxynaphthalen-2-yl)-1λ^6,2,5-thiadiazolidine-1,1,3-trione] are 1 to 10 nM, above 90% and below 25%.
As for `CS(=O)(=O)N1CCC(Nc2ccc3cc(O)c(N4CC(=O)NS4(=O)=O)c(F)c3c2)CC1` [Compound 305, 5-(1-fluoro-3-hydroxy-7-{[1-(methanesulfonyl)piperidin-4-yl]amino}naphthalen-2-yl)-1λ^6,2,5-thiadiazolidine-1,1,3-trione], in experiment [1], the IC50 was in the range of 10 to 100 nM. Also, the inhibition at 33 µM was 60 to 90% in experiment [2] (setting [3]) and below 25% in experiment [2] (setting [4]).
Turning to `CC(C)CCS(=O)(=O)N1CC=C(c2ccc3cc(O)c(N4CC(=O)NS4(=O)=O)c(F)c3c2)C1` [Compound 313, 5-{1-fluoro-3-hydroxy-7-[1-(3-methylbutane-1-sulfonyl)-2,5-dihydro-1H-pyrrol-3-yl]naphthalen-2-yl}-1λ^6,2,5-thiadiazolidine-1,1,3-trione], the IC50 in experiment [1] was below 1 nM. Also, the inhibition at 33 µM in experiment [2] (setting [3]) was 60 to 90%; in experiment [2] (setting [4]), below 25%.
For `O=C1CN(c2c(O)cc3ccc(O)cc3c2F)S(=O)(=O)N1` [Compound 276, 5-(1-fluoro-3,7-dihydroxynaphthalen-2-yl)-1λ^6,2,5-thiadiazolidine-1,1,3-trione], in experiment [1], the concentration for half-maximal inhibition (IC50) lay within 1 to 10 nM. Moreover, the inhibition at 33 µM in experiment [2] (setting [3]) is 25 to 59%; in experiment [2] (setting [4]), below 25%.
The corresponding values for `O=C1CN(c2c(O)cc3ccc(C4=CCOCC4)cc3c2F)S(=O)(=O)N1` [Compound 264, 5-[7-(3,6-dihydro-2H-pyran-4-yl)-1-fluoro-3-hydroxynaphthalen-2-yl]-1λ^6,2,5-thiadiazolidine-1,1,3-trione] are 1 to 10 nM, 60 to 90% and below 25%.
For `O=C1CN(c2c(O)cc3ccc(NCCc4ccccc4)cc3c2F)S(=O)(=O)N1` [Compound 164, 5-{1-fluoro-3-hydroxy-7-[(2-phenylethyl)amino]naphthalen-2-yl}-1λ^6,2,5-thiadiazolidine-1,1,3-trione], the IC50 in experiment [1] is below 1 nM. The inhibition at 33 µM in experiment [2] (setting [3]) is above 90%; in experiment [2] (setting [4]) it was below 25%.
On the same counts, the results for `O=C1CN(c2c(O)cc3ccc(OC4COC4)cc3c2F)S(=O)(=O)N1` [Compound 274, 5-{1-fluoro-3-hydroxy-7-[(oxetan-3-yl)oxy]naphthalen-2-yl}-1λ^6,2,5-thiadiazolidine-1,1,3-trione] are 1 to 10 nM, 60 to 90% and below 25%.
On the same counts, the results for `Nc1ccc(CS(=O)(=O)N2CC=C(c3ccc4cc(O)c(N5CC(=O)NS5(=O)=O)c(F)c4c3)C2)cc1` [Compound 184, 5-(7-{1-[(4-aminophenyl)methanesulfonyl]-2,5-dihydro-1H-pyrrol-3-yl}-1-fluoro-3-hydroxynaphthalen-2-yl)-1λ^6,2,5-thiadiazolidine-1,1,3-trione] are below 1 nM, 25 to 59% and below 25%.
The corresponding values for `O=C1CN(c2c(O)cc3ccc(NCCCC(F)(F)F)cc3c2F)S(=O)(=O)N1` [Compound 166, 5-{1-fluoro-3-hydroxy-7-[(4,4,4-trifluorobutyl)amino]naphthalen-2-yl}-1λ^6,2,5-thiadiazolidine-1,1,3-trione] are 1 to 10 nM, above 90% and below 25%.
In the case of `CCOc1ccc2cc(O)c(N3CC(=O)NS3(=O)=O)c(F)c2c1` [Compound 301, 5-(7-ethoxy-1-fluoro-3-hydroxynaphthalen-2-yl)-1λ^6,2,5-thiadiazolidine-1,1,3-trione], the IC50 in experiment [1] was in the range of 1 to 10 nM. The inhibition at 33 µM in experiment [2] (setting [3]) is 60 to 90%; in experiment [2] (setting [4]), below 25%.
As for `CC(C)(C#N)CCOc1ccc2cc(O)c(N3CC(=O)NS3(=O)=O)c(F)c2c1` [Compound 120, 4-{[8-fluoro-6-hydroxy-7-(1,1,4-trioxo-1λ^6,2,5-thiadiazolidin-2-yl)naphthalen-2-yl]oxy}-2,2-dimethylbutanenitrile], the IC50 in experiment [1] was below 1 nM. Further, the inhibition at 33 µM in experiment [2] (setting [3]) was 60 to 90%; in experiment [2] (setting [4]) it was below 25%.
